According to patent US20250179299A1, “DYES FOR MONITORING CELL STATES” (SUNNYBROOK RESEARCH INSTITUTE, priority 2022, published 2025):
Where a name gives a salt, the structure may show the parent alone.

Assays:
[1] = tested on: primary cells (lymphocytes) and cell lines (tumoral); assay: Fluorescence change of dye-stained cells after treatment with agents that induce cell death; format: cell-based; details: for fluorescence intensity relative to MT4 and MT5 / signal-to-noise ratio relative to MT4 and MT5: low micromolar staining concentrations (e.g., 1 μM); for change in fluorescence intensity of the dye after treatment with cell-death inducing agents: staurosporine, or AZD 5991 plus A1331852, in cells sensitive to these drugs but not in chemoresistant cells
Protocol: FIG. 1 depicts microscopy images showing fluorescence change of MT2 and reference dyes following drug treatment of primary lymphocytes. Primary lymphocytes were cultured for 24 hrs with 1 μM Staurosporine (STS, pan-kinase inhibitor) or DMSO (solvent control). Cells were stained with Hoechst (left images), tetramethylrhodamine ethyl ester (TMRE) (middle images) and MT2 (right images). Scale bar, 20 μm.
(§1) MCF10A cells were cultured for 24 hrs prior to 72 hr dual treatment with 0.312 μM each of AZD 5991 (Bcl-XL inhibitor) and A1331852 (MCL-1 inhibitor) or DMSO (solvent control). FIG. 2A: cells were stained with Hoechst (left images), TMRE (middle images) and MT3 (right images). Scale bar, 100 μm. FIGS. 2B-E: comparison of the staining pattern of Hoechst, MT3, and TMRE in control and treated MCF10A epithelial breast cells.
(§2) FIG. 3 depicts microscopy images showing fluorescence change of 1 μM MT3 and reference dyes following drug treatment of CAMA-1 luminal-type human breast cancer cells. CAMA-1 cells were cultured for 24 hrs prior to 72 hr dual treatment with 0.312 μM each of AZD 5991 (Bcl-XL inhibitor) and A1331852 (MCL-1 inhibitor) or DMSO (solvent control). Cells were stained with Hoechst (left images), TMRE (middle images) and MT3 (right images). Scale bar, 100 μm.
(§3) FIG. 4 depicts microscopy images showing fluorescence change of MT3 and reference dyes following drug treatment of MCF-7 human epithelial breast adenocarcinoma cells. MCF-7 cells were cultured for 24 hrs prior to 72 hr dual treatment with 0.312 μM each of AZD 5991 (Bcl-XL inhibitor) and A1331852 (MCL-1 inhibitor) or DMSO (solvent control). Cells were stained with Hoechst (left images), TMRE (middle images) and MT3. Scale bar, 100 μm.
as §2, with “FIG. 5” for “FIG. 3”, “of” for “of 1 μM”, “of Zr-75-1 epithelial” for “of CAMA-1 luminal-type human”, “breast ductal carcinoma” for “breast cancer”, “cells. Zr-75-1” for “cells. CAMA-1”
as §3, with “FIG. 6” for “FIG. 4”, “of MDA-MB-231” for “of MCF-7 human”, “cells. MDA-MB-231” for “cells. MCF-7”, “and MT3 (right images).” for “and MT3.”
as §3, with “FIG. 7” for “FIG. 4”, “of MDA-MB-468” for “of MCF-7 human”, “cells. MDA-MB-468” for “cells. MCF-7”
as §2, with “FIG. 8” for “FIG. 3”, “of” for “of 1 μM”, “of T47D epithelial” for “of CAMA-1 luminal-type human”, “breast ductal carcinoma” for “breast cancer”, “cells. T47D” for “cells. CAMA-1”
(§4) These changes in fluorescence emission properties were shared by all dyes tested (MT2-MT5).

[2] = tested on: MCF-7 breast epithelial cancer cells; assay: MT2 staining of MCF-7 cells treated with inducers of autophagy, ER stress or apoptosis; format: cell-based, human; details: 1-5 μM MT2; Rapamycin, Thapsigargin, or TNFα and CHx; excitation 488 nm, emission 520, 600, 690 nm
Protocol: FIG. 9 depicts microscopy images showing fluorescence change of MT2 and reference dyes following drug treatment of MCF-7 human epithelial breast adenocarcinoma cells. MCF-7 cells were cultured for 12 hrs in standard conditions and treated with drugs to induce autophagy (Rapamycin), endoplasmic reticulum stress (Thapsigargin), apoptosis (Tumor Necrosis Factor alpha, TNFα, and Cyclohexamide, CHx), or solvent control (DMSO). Dye MT2 was excited at 488 nm, and emission was simultaneously collected at three wavelengths, 520 nm (Green), 600 nm (Red), and 690 (Far Red) nm.
The dye was excited at 488 nm, and emission was simultaneously collected at three wavelengths, 520 (Green), 600 (Red), and 690 (Far Red) nm. […] Image analysis by machine-learning algorithms trained on measurements of cellular intensity, morphology, and texture features permits to distinguish treatment-specific phenotypic states.

MCF-7 tumoral cells = assay: Staining of live MCF-7 cells with 1 μM dye (microscopy); format: cell-based, human
Protocol: FIGS. 14A-J depict microscopy images showing staining of MCF7 cells with 1 μM of the following dyes: MT3 (FIG. 14A), MT20 (FIG. 14B), MT21 (FIG. 14C), MT22 (FIG. 14D), MT23 (FIG. 14E), MT24 (FIG. 14F), MT25 (FIG. 14G), MT26 (FIG. 14H), MT27 (FIG. 14I), and MT28 (FIG. 14J). Scale bar, 25 μm.
Used at a standard 1 μM concentration, the proposed dyes produce varying staining patterns and intensities. Furthermore, the proposed dyes display fluorescent properties only when labelling cell organelles and can therefore be used directly without washing steps.

[3] = tested on: Zr-75-1 epithelial breast ductal carcinoma cells; assay: MT3 staining of drug-treated chemoresistant Zr-75-1 cells; format: cell-based; details: 72 hr 0.312 μM each AZD 5991 and A1331852
Protocol: as §2, with “FIG. 5” for “FIG. 3”, “of” for “of 1 μM”, “of Zr-75-1 epithelial” for “of CAMA-1 luminal-type human”, “breast ductal carcinoma” for “breast cancer”, “cells. Zr-75-1” for “cells. CAMA-1”
as §4

[4] = tested on: MCF10A epithelial breast cells; assay: Staining of control and drug-treated MCF10A cells; format: cell-based
Protocol: FIGS. 2A-E depict microscopy images showing fluorescence change of 1 μM MT3 and reference dyes following drug treatment of non-tumorigenic MCF10A epithelial breast cells.
as §1, §4
In the figures, Hoechst stains DNA in the nucleus, and if the nucleus condenses that staining becomes bright (i.e., more dye per unit area). […] In FIG. 2E, the TMRE staining has almost completely disappeared in drug treated cells, whereas MT3 is staining the nuclei. […] FIGS. 7 and 8 have similar lack of staining for TMRE, FIG. 7 is similar to FIG. 4 where the staining with Hoechst and MT3 are mutually exclusive, and FIG. 8 is similar to FIG. 3 where MT3 is staining nuclei where the Hoechst has not condensed.

## CC(C)CCN(CCC(C)C)c1ccc2cc(/C=C/c3cc[n+](CCCS(=O)(=O)[O-])c4ccccc34)ccc2c1 [MT2, 4-(2-[6-(diisopentylamino)-2-naphthalenyl]ethenyl)-1-(3-sulfopropyl)quinolinium inner salt]
[1]
  fluorescence intensity relative to MT4 and MT5: better fluorescence intensity
  signal-to-noise ratio relative to MT4 and MT5: better signal-to-noise ratios
  change in fluorescence intensity of the dye after treatment with cell-death inducing agents: increase in fluorescence intensity
[2]
  staining pattern across phenotypic states (autophagy, ER stress, apoptosis): different staining patterns

## Cc1cccc(N(c2cccc(C)c2)c2ccc3cc(/C=C/c4cc[n+](CCCS(=O)(=O)[O-])cc4)ccc3c2)c1 [MT3, 4-(2-[6-(dim-tolylamino)-2-naphthalenyl]ethenyl)-1-(3-sulfopropyl) pyridinium Inner Salt]
MCF-7 tumoral cells
  ability to stain live cells: able to stain live cells
  cell permeability: cell-permeable
[1]
  fluorescence intensity relative to MT4 and MT5: better fluorescence intensity
  signal-to-noise ratio relative to MT4 and MT5: better signal-to-noise ratios
  change in fluorescence intensity of the dye after treatment with cell-death inducing agents: increase in fluorescence intensity
[3]
  staining of cells with condensed nuclei (Hoechst staining): did not show bright MT3 staining
[4]; MCF10A, 1 μM MT3, 72 hr 0.312 μM each AZD 5991 and A1331852, normal cells stained with different intensities
  staining intensity of drug-treated dying cells: very brightly

## Cc1cccc(N(c2cccc(C)c2)c2ccc3cc(/C=C/c4cc[n+](CCCS(=O)(=O)[O-])cc4)c4ccccc4c3c2)c1 [MT20, (E)-3-(4-(2-(3-(di-m-tolylamino)phenanthren-9-yl)vinyl)pyridin-1-ium-1-yl)propane-1-sulfonate]
MCF-7 tumoral cells
  ability to stain live cells: able to stain live cells
  cell permeability: cell-permeable

## Cc1cccc(N(c2cccc(C)c2)c2ccc3cc(/C=C/c4cc[n+](CCCCS(=O)(=O)[O-])cc4)ccc3c2)c1 [MT21, (E)-4-(4-(2-(6-(di-m-tolylamino)naphthalen-2-yl)vinyl)pyridin-1-ium-1-yl)butane-1-sulfonate]
MCF-7 tumoral cells
  ability to stain live cells: able to stain live cells
  cell permeability: cell-permeable

## CC(C)=CCN(CC=C(C)C)c1ccc2cc(/C=C/c3cc[n+](CCCS(=O)(=O)[O-])cc3)ccc2c1 [MT22, (E)-3-(4-(2-(6-(bis(3-methylbut-2-en-1-yl)amino)naphthalen-2-yl)vinyl)pyridin-1-ium-1-yl)propane-1-sulfonate]
MCF-7 tumoral cells
  ability to stain live cells: able to stain live cells
  cell permeability: cell-permeable

## Cc1cccc(N(c2cccc(C)c2)c2ccc3cc(/C=C/c4cc[n+](CCCS(=O)(=O)[O-])cc4F)ccc3c2)c1 [MT23, 4-[(1E)-2-{6-[Bis(3-methylphenyl)amino]naphthalen-2-yl}ethenyl]-3-fluoro-1-(3-sulfopropyl)pyridin-1-ium]
MCF-7 tumoral cells
  cell permeability: cell-permeable

## Cc1cccc(N(c2cccc(C)c2)c2ccc3cc(/C=C(\F)c4cc[n+](CCCS(=O)(=O)[O-])cc4)ccc3c2)c1 [MT24, 4-[(1Z)-2-{6-[Bis(3-methylphenyl)amino]naphthalen-2-yl}-1-fluoroethenyl]-1-(3-sulfopropyl)pyridin-1-ium]
MCF-7 tumoral cells
  cell permeability: cell-permeable

## CC(C)=CCN(CC=C(C)C)c1ccc2cc(/C=C/c3cc[n+](CCCS(=O)(=O)[O-])cc3)ccc2c1F [MT25, 4-[(1E)-2-{6-[Bis(3-methylbut-2-en-1-yl)amino]-5-fluoronaphthalen-2-yl}ethenyl]-1-(3-sulfopropyl)pyridin-1-ium]
MCF-7 tumoral cells
  cell permeability: cell-permeable

## CC(C)=CCN(CC=C(C)C)c1ccc2cc(/C=C/c3cc[n+](CCCS(=O)(=O)[O-])cc3)ccc2c1C(F)(F)F [MT26, 4-[(1E)-2-{6-[Bis(3-methylbut-2-en-1-yl)amino]-5-(trifluoromethyl)naphthalen-2-yl}ethenyl]-1-(3-sulfopropyl)pyridin-1-ium]
MCF-7 tumoral cells
  cell permeability: cell-permeable

## Cc1cccc(N(c2cccc(C)c2)c2ccc3cc(/C=C/c4cc[n+](CCC[N+](C)(C)C)cc4)ccc3c2)c1 [MT27, 4-[(1E)-2-{6-[Bis(3-methylphenyl)amino]naphthalen-2-yl}ethenyl]-1-[3-(trimethylazaniumyl)propyl]pyridin-1-ium dibromide]
MCF-7 tumoral cells
  ability to stain live cells: able to stain live cells
  cell permeability: cell-permeable

## Cc1cccc(N(c2cccc(C)c2)c2ccc3cc(/C=C/c4cc[n+](CC(O)C[N+](C)(C)CCO)cc4)ccc3c2)c1 (centres unmarked) [MT28, 4-[(1E)-2-{6-[Bis(3-methylphenyl)amino]naphthalen-2-yl}ethenyl]-1-{2-hydroxy-3-[(2 hydroxyethyl)dimethylazaniumyl]propyl}pyridin-1-ium dibromide]
MCF-7 tumoral cells
  ability to stain live cells: able to stain live cells
  cell permeability: cell-permeable

## tetramethylrhodamine ethyl ester [TMRE, reference compound]
[4]; 72 hr 0.312 μM each AZD 5991 and A1331852 (FIGS. 2E and 3)
  staining of drug-treated dying cells relative to control cells: low staining
